How the values were obtained:
[1] = system: nucleus pulposus of the L3-4 intervertebral disc; experiment: Flexion stiffness of the injected intervertebral disc (Example 1); format: in vivo, pig; conditions: injected disc L 3-4; 0.2 mL of 1.34 mol/L lactic acid into nucleus pulposus; seven days after injection; mean ± SD; two pigs
Protocol: Access to the L4-5 intervertebral disc was obtained through a lateral incision between the lowest rib and the iliac crest on the left side of each pig. Thereafter, the L3-4 intervertebral disc was incised with a scalpel. […] The composition was injected in a single step at a single occasion.

[2] = system: nucleus pulposus of the L3-4 intervertebral disc; experiment: Dimension of the disc space after administration (Example 1); format: in vivo, pig; conditions: injected disc L 3-4; 0.2 mL of 1.34 mol/L lactic acid; seven days after injection; mean ± SD
Protocol: 110. performing a cross-section of the discs and measuring the length (anterio-posterior direction) and the width (bilateral direction) of the disc space. Two pigs were anesthetized and placed on their right side. Access to the L4-5 intervertebral disc was obtained through a lateral incision between the lowest rib and the iliac crest on the left side of each pig. Thereafter, the L3-4 intervertebral disc was incised with a scalpel. […] The composition was injected in a single step at a single occasion. The intervertebral discs (L2-3, L3-4, L4-5) were cross-sectioned and the length of the disc space (anterio-posterior direction) and the width (bilateral direction) of the disc space were measured by calipers. In FIGS. 5 and 6, an intervertebral disc is schematically shown in cross-section. The intervertebral disc comprises the annulus fibrosus 10, and a disc space defined by the annulus fibrosus and comprising the nucleus pulposus 11.

pig = experiment: Tolerability and injection site observation (Example 1); format: in vivo; conditions: two pigs
Protocol: Two pigs were anesthetized and placed on their right side. Access to the L4-5 intervertebral disc was obtained through a lateral incision between the lowest rib and the iliac crest on the left side of each pig. Thereafter, the L3-4 intervertebral disc was incised with a scalpel.
The composition was injected in a single step at a single occasion.
At harvest, the pigs were killed.
The injection site was observed by the naked eye. […] The segment of the vertebral column extending from the lumbar vertebra L2 to the sacral vertebra S1 was removed. The facet joints were removed, thus allowing full flexibility of the discs with no restraints from other structures.

[3] = system: intervertebral disc L1/2 to L3/4; experiment: Disc height on post-mortem X-ray (Example 3); format: in vivo, pig; conditions: 120 or 240 mg/ml lactic acid + iohexol, 0.2 ml; both doses; 2, 28 and 84 days; FIG. 16
Description: (§1) Eleven pigs were anesthetized and placed on their right side. Through a lateral incision the discs to be injected were exposed. […] After 2, 28 or 84 days the pigs were killed and the lumbar spine was harvested. All musculature was removed as well as the facet joints and ligamentum flavum between the L1/2, L2/3 and L3/4 vertebrae. The following endpoints were used: • A. X-ray pictures were taken at the day of injection and at the harvest day to ascertain that the injection was correctly placed and to determine if the discs were radio-opaque after 2, 28 and 84 days. • B. The X-rays taken post-mortem were used to measure disc height. • C. The sectioned discs were photographed and the degree of fibrotisation was visually evaluated.

[4] = system: intervertebral disc L1/2 to L3/4; experiment: Visual evaluation of fibrotisation of the nucleus space (Example 3); format: in vivo, pig
Description: as §1

SMILES: CC(O)C(=O)O (stereo not drawn) [lactic acid]
- Difference in distance between transverse processes before and upon full lateral flexion [1]: 0.3 ± 0.6 mm
- Average antero-posterior length of the disc space [2]: 13.5 ± 1.3 mm
- Average bilateral width of the disc space [2]: 4.0 ± 1.4 mm
- Adverse reaction such as decreased mobility or vocalization (pig; 0.2 mL of 1.34 mol/L lactic acid intradiscal, period of seven days until harvest): no adverse reaction
- Adverse reaction at the injection site (bleedings, inflammation or necrosis), naked eye (pig; at harvest seven days after injection): No adverse reaction at the injection site
- Disc height, discs injected with lactic acid versus placebo (X-ray) [3]: no difference in height
- Fibrotisation of the nucleus space ([4]; 84 days after injection, some discs, FIG. 17a): fibrosis was close to complete
- Fibrotisation of the nucleus space ([4]; after 2 days, 120 or 240 mg/ml lactic acid, 0.2 ml, some discs): tendency to fibrotisation
- Fibrotisation of the nucleus space ([4]; after 28 days, 120 or 240 mg/ml lactic acid, 0.2 ml): fibrotisation was evident

From patent publication US10080729B2, “Composition for use in the treatment of intervertebral misalignment” (STAYBLE THERAPEUTICS AB, priority 2015, dated 2018)
